Columns and labels:
[1] = system: human ileum monolayer culture; assay: Sustained inhibition of apical acid secretion in human organoid monolayer cell cultures (ileum); format: cell-based; settings: 1 μM apical, dosed day 6, apical media pH day 8, vs DMSO; for inhibition at 1 µM: Homo sapiens, 48 h
Experimental: (§1) Basal media (BM) consisted of advanced DMEM/F12 containing 10 mM HEPES Invitrogen, 15630-080), 1:100 Glutamax (Invitrogen, 35050-061), and 1:100 penicillin/streptomycin (Invitrogen, 15140-122). Supplemented basal media (SBM) contained 1:100 N2 (Invitrogen, 17502-048), 1:50 B27 (Invitrogen, 12587-010), 1 mM N-acetylcysteine (Sigma, A9165), and 10 nM [Leu15]-gastrin I (Sigma, G9145). Growth factors used included 50 ng per mL mouse EGF (Peprotech, 315-09), 100 ng per mL mouse noggin (Peprotech, 250-38), 500 ng per mL human R-spondin 1 (R&D, 4645-RS), 100 ng per mL mouse Wnt-3a (R&D, 1324-WN), 20 μM. Y-27632 (Tocris, 1254), 10 mM nicotinamide (Sigma, N0636), 500 nM A83-01 (Tocris, 2939), 10 μM SB202190 (Tocris, 1264). Transwells were 0.4 μm pore polyester membrane 24-well Transwell inserts (Corning). Cultures were incubated at 37° C. in 5% CO2.
(§2) Human ileum organoids were cultured in WENRNAS (Wnt, EGF, noggin, R-spondin1, Nicotinamide, A83-01, SB202190) and typically grown for 7-12 days before being used to plate monolayer cultures. On day 0, organoid cultures embedded in Matrigel were treated with TrypLE Express to break organoids into small pieces and/or single cells. The cells were resuspended to 0.5×10^6 cells/mL in SBM containing WENRAY (Wnt, EGF, noggin, R-spondin1, A83-01, Y-27632). Following this step, 200 μL of cell suspension was plated into the apical side of a 24-well Transwell (100,000 cells/well) and 600 μL of SBM with WENRAY was added to the basolateral side. Ileum cells were differentiated with ENRA (EGF, noggin, R-spondin 1, A83-01) on day 3. The color of apical compartment turns from pink or orange to yellow due to the increase in NHE3 expression after differentiation.
(§3) Each human ileum monolayer culture well was washed twice with fresh SBM on the apical side on day 6 before compound dosing. All compound stocks were 10 mM dissolved in DMSO. Each compound stock was individually mixed with fresh SBM to reach final compound concentration 1 μM and dosed only on the apical side of the monolayer (total volume 200 μl). DMSO at the equivalent concentration was used as the vehicle control. Duplicate wells were dosed for each compound. On day 8, apical media pH was measured by pH electrode, to determine the ability of example compounds to produce sustained inhibition of NHE3 activity in a human monolayer culture system by preventing proton secretion into the apical compartment.

[2] = system: human duodenum monolayer culture; assay: Sustained inhibition of apical acid secretion in human organoid monolayer cell cultures (duodenum); format: cell-based; settings: for inhibition at 1 µM: Homo sapiens
Experimental: as §1, §3
as §2, with “Human duodenum” for “Human ileum”, “side. Duodenum” for “side. Ileum”, “with ENA” for “with ENRA”, “noggin,” for “noggin, R-spondin 1,”

“3-[2-(2-[2-[(4-[[(1S,2S)-4,6-Dichloro-2-[(3R)-3-[methyl(propan-2-yl)amino]piperidin-1-yl]-2,3-dihydro-1H-inden-1-yl]oxy]benzene) sulfonamido]ethoxy]ethoxy)ethyl]-1-[4-([[2-(2-[2-[(4-[[(1S,2S)-4,6-dichloro-2-[(3R)-3-[methyl(propan-2-yl)amino]piperidin-1-yl]-2,3-dihydro-1H-inden-1-yl]oxy]benzene)sulfonamido]ethoxy]ethoxy)ethyl]carbamoyl]amino)butyl]urea; bis(trifluoroacetic acid) [Example 78]” was tested, and the “% inhibition (ileum)” value [1] was “C (>70%)” and the “% inhibition (duodenum)” value ([2]; 1 μM apical, inhibition of apical acid secretion vs DMSO) was “C (>70%)”.

Work on `Cc1cc(S(=O)(=O)NCCOCCOCCNC(=O)NCCCCNC(=O)NCCOCCOCCNS(=O)(=O)c2ccc(O[C@H]3c4cc(Cl)cc(C)c4C[C@@H]3N(C)C)c(C)c2)ccc1O[C@H]1c2cc(Cl)cc(C)c2C[C@@H]1N(C)C` [Example 17, 3-[2-(2-[2-[(4-[[(1S,2S)-6-Chloro-2-(dimethylamino)-4-methyl-2,3-dihydro-1H-inden-1-yl]oxy]-3-methylbenzene)sulfonamido]ethoxy]ethoxy)ethyl]-1-[4-([[2-(2-[2-[(4-[[(1S,2S)-6-chloro-2-(dimethylamino)-4-methyl-2,3-dihydro-1H-inden-1-yl]oxy]-3-methylbenzene)sulfonamido]ethoxy]ethoxy)ethyl]carbamoyl]amino)butyl]urea] yielded an inhibition at 1 µM [1] of 50 to 70% and an inhibition at 1 µM [2] of 50 to 70%.

In the case of `CN(C)[C@H]1Cc2c(Cl)cc(Cl)cc2[C@@H]1Oc1ccc(S(=O)(=O)NCCOCCOCCNC(=O)NCCCCNC(=O)NCCOCCOCCNS(=O)(=O)c2ccc(O[C@H]3c4cc(Cl)cc(Cl)c4C[C@@H]3N(C)C)c(F)c2)cc1F` [Example 23, 3-[2-(2-[2-[(4-[[(1S,2S)-4,6-Dichloro-2-(dimethylamino)-2,3-dihydro-1H-inden-1-yl]oxy]-3-fluorobenzene)sulfonamido]ethoxy]ethoxy)ethyl]-1-[4-([[2-(2-[2-[(4-[[(1S,2S)-4,6-dichloro-2-(dimethylamino)-2,3-dihydro-1H-inden-1-yl]oxy]-3-fluorobenzene)sulfonamido]ethoxy]ethoxy)ethyl]carbamoyl]amino)butyl]urea; bis(trifluoroacetic acid)], the inhibition at 1 µM [1] is reported as 50 to 70% and the inhibition at 1 µM [2] is reported as 50 to 70%.

In the case of `Cc1cc(Cl)cc2c1C[C@H](N(C)C)[C@H]2Oc1ccc(S(=O)(=O)NCCOCCOCCNC(=O)NCCCCNC(=O)NCCOCCOCCNS(=O)(=O)c2ccc(O[C@H]3c4cc(Cl)cc(C)c4C[C@@H]3N(C)C)c(F)c2)cc1F` [Example 24, 3-[2-(2-[2-[(4-[[(1S,2S)-6-Chloro-2-(dimethylamino)-4-methyl-2,3-dihydro-1H-inden-1-yl]oxy]-3-fluorobenzene)sulfonamido]ethoxy]ethoxy)ethyl]-1-[4-([[2-(2-[2-[(4-[[(1S,2S)-6-chloro-2-(dimethylamino)-4-methyl-2,3-dihydro-1H-inden-1-yl]oxy]-3-fluorobenzene)sulfonamido]ethoxy]ethoxy)ethyl]carbamoyl]amino)butyl]urea], the inhibition at 1 µM [1] is reported as under 50% and the inhibition at 1 µM [2] is reported as 50 to 70%.

`Cc1cc(S(=O)(=O)NCCOCCOCCNC(=O)NCCCCNC(=O)NCCOCCOCCNS(=O)(=O)c2ccc(O[C@H]3c4cc(Cl)cc(Cl)c4C[C@@H]3N3CCC[C@@H](N(C)C)C3)c(C)c2)ccc1O[C@H]1c2cc(Cl)cc(Cl)c2C[C@@H]1N1CCC[C@@H](N(C)C)C1` [Example 26, 3-[2-(2-[2-[(4-[[(1S,2S)-4,6-Dichloro-2-[(3R)-3-(dimethylamino)piperidin-1-yl]-2,3-dihydro-1H-inden-1-yl]oxy]-3-methylbenzene)sulfonamido]ethoxy]ethoxy)ethyl]-1-[4-([[2-(2-[2-[4-[[(1S,2S)-4,6-dichloro-2-[(3R)-3-(dimethylamino)piperidin-1-yl]-2,3-dihydro-1H-inden-1-yl]oxy]-3-methylbenzenesulfonamido]ethoxy]ethoxy)ethyl]carbamoyl]amino)butyl]urea; bis(trifluoroacetic acid)] showed an inhibition at 1 µM [1] of 50 to 70% and an inhibition at 1 µM [2] of 50 to 70%.

Reference: patent US11242337B2, “Compounds useful for treating gastrointestinal tract disorders” (Ardelyx, Inc., priority 2017, dated 2022)
